# Experimental data: US20240261224A1, “FORMULATION OF A PAN-JAK INHIBITOR” (KINASET THERAPEUTICS, INC., priority 2022, published 2024)
# Legend:
# [1] = 13-week inhalation toxicology study, rat model; type: in vivo; settings: in vivo, inhaled or intranasal, rat; for AUC(0-t): AUC0-24
# Protocol: (§1) Lactose/MgSt-based formulations of Compound I were evaluated during a 13-week inhalation toxicology study using a rat model.
# (§2) The NOAEL was assigned to the highest dose study (11.9 mg/kg/day).
# rat = test: 13-week inhalation toxicology study, rat model; type: in vivo; settings: for AUC0-24: rat, in vivo, inhaled or intranasal
# Protocol: as §1, §2
# [2] = Phase 1 Part 2 plasma pharmacokinetics (mild asthma); type: in vivo, human; settings: Day 10
# Description: Day 10 pharmacokinetic parameters for Parts 2 and 3 of Phase I are summarized below in Table 28. Part 2 involved the administration of 4 different dose regimens, to subjects with mild asthma naïve to ICS therapy, over a 10-day period. Each separate cohort comprised 6 subjects receiving active treatment with 2 receiving matching placebo. Blood samples were collected to enable the measurement of Compound I concentrations in plasma. The resultant data was used to determine the PK parameters at Day 10 representing the Day on which the final dose was received.
structure (smiles),measurement,setting,value
"Cn1c(=O)n([C@H]2CCCN(C(=O)CC#N)C2)c2nc(-c3cnn4ccccc34)ccc21 [Compound I, (S)-3-(3-(1-methyl-2-oxo-5-(pyrazolo[1,5-a]pyridine-3-yl)-1H-imidazo[4,5-b]pyridine-3(2H)-yl)piperidin-1-yl)-3-oxopropanenitrile]",NOAEL at 13 weeks,"[1]; 13-week inhalation, highest dose",11.9 mg/kg/day
same,AUC(0-t),[1]; 1.3 mg/kg/day,339 ng·h/mL
same,AUC(0-t),[1]; 4 mg/kg/day,850 ng·h/mL
same,AUC(0-t),[1]; 12 mg/kg/day,2060 ng·h/mL
same,AUC0-24,rat; 1.3 mg/kg/day,197 ng·h/mL
same,AUC0-24,rat; 4 mg/kg/day,738 ng·h/mL
same,AUC0-24,rat; 12 mg/kg/day,1950 ng·h/mL
same,MMAD,rat; target delivered dose 1.3 mg/kg/day (low dose),1.9 μm
same,MMAD,rat; target delivered dose 4.0 mg/kg/day (mid dose),2.0 μm
same,MMAD,rat; target delivered dose 12.0 mg/kg/day (high dose),2.1 μm
same,AUC0-12 hours Max,[2]; 0.6 mg QD,"23,507 pg · h/ml"
same,AUC0-12 hours Min,[2]; 0.6 mg QD,"7,596 pg · h/ml"
same,AUC0-24 hours Max,[2]; 0.6 mg QD,"36,466 pg · h/ml"
same,AUC0-24 hours Min,[2]; 0.6 mg QD,"8,579 pg · h/ml"
same,AUC0-last non-zero Max,[2]; 0.6 mg QD,"47,928 pg · h/ml"
same,AUC0-last non-zero Min,[2]; 0.6 mg QD,"8,579 pg · h/ml"
same,AUC0-∞ Max,[2]; 0.6 mg QD,"52,842 pg · h/ml"
same,AUC0-∞ Min,[2]; 0.6 mg QD,"8,783 pg · h/ml"
same,AUCover dosing interval Max,[2]; 0.6 mg QD,"36,466 pg · h/ml"
same,AUCover dosing interval Min,[2]; 0.6 mg QD,"8,579 pg · h/ml"
same,Cmax Max,[2]; 0.6 mg QD,"2,750 pg/ml"
same,Cmax Min,[2]; 0.6 mg QD,"1,020 pg/ml"
same,Ctrough Geometric mean,[2]; 0.6 mg QD,234 pg/mL
same,Ctrough Max,[2]; 0.6 mg QD,913 pg/mL
same,Ctrough Mean,[2]; 0.6 mg QD,362 pg/mL
same,Ctrough Min,[2]; 0.6 mg QD,0.034 ng/mL
same,AUC0-12 hours Max,[2]; 2 mg QD,"88,203 pg · h/ml"
same,AUC0-12 hours Min,[2]; 2 mg QD,"30,807 pg · h/ml"
same,AUC0-24 hours Max,[2]; 2 mg QD,"125,837 pg · h/ml"
same,AUC0-24 hours Min,[2]; 2 mg QD,"42,693 pg · h/ml"
same,AUC0-last non-zero Max,[2]; 2 mg QD,"143,585 pg · h/ml"
same,AUC0-last non-zero Min,[2]; 2 mg QD,"48,931 pg · h/ml"
same,AUC0-∞ Max,[2]; 2 mg QD,"145,552 pg · h/ml"
same,AUC0-∞ Min,[2]; 2 mg QD,"50,025 pg · h/ml"
same,AUCover dosing interval Max,[2]; 2 mg QD,"125,837 pg · h/ml"
same,AUCover dosing interval Min,[2]; 2 mg QD,"42,693 pg · h/ml"
same,Cmax Max,[2]; 2 mg QD,"9,630 pg/ml"
same,Cmax Min,[2]; 2 mg QD,"4,160 pg/ml"
same,Ctrough Geometric mean,[2]; 2 mg QD,929 pg/mL
same,Ctrough Max,[2]; 2 mg QD,"1,370 pg/ml"
same,Ctrough Mean,[2]; 2 mg QD,970 pg/mL
same,Ctrough Min,[2]; 2 mg QD,0.536 ng/mL
same,AUC0-12 hours Max,[2]; 4 mg BID,"373,995 pg · h/ml"
same,AUC0-12 hours Min,[2]; 4 mg BID,"39,111 pg · h/ml"
same,AUC0-24 hours Max,[2]; 4 mg BID,"473,634 pg · h/ml"
same,AUC0-24 hours Min,[2]; 4 mg BID,"43,350 pg · h/ml"
same,AUC0-last non-zero Max,[2]; 4 mg BID,"586,513 pg · h/ml"
same,AUC0-last non-zero Min,[2]; 4 mg BID,"43,356 pg · h/ml"
same,AUC0-∞ Max,[2]; 4 mg BID,"587,424 pg · h/ml"
same,AUC0-∞ Min,[2]; 4 mg BID,"44,654 pg · h/ml"
same,AUCover dosing interval Max,[2]; 4 mg BID,"373,995 pg · h/ml"
same,AUCover dosing interval Min,[2]; 4 mg BID,"39,111 pg · h/ml"
same,Cmax Max,[2]; 4 mg BID,"47,800 pg/ml"
same,Cmax Min,[2]; 4 mg BID,"7,750 pg/ml"
same,Ctrough Geometric mean,[2]; 4 mg BID,"6,983 pg/ml"
same,Ctrough Max,[2]; 4 mg BID,"15,600 pg/ml"
same,Ctrough Mean,[2]; 4 mg BID,"10,001 pg/ml"
same,Ctrough Min,[2]; 4 mg BID,0.563 ng/mL
same,AUC0-12 hours Max,[2]; 8 mg BID,"830,085 pg · h/ml"
same,AUC0-12 hours Min,[2]; 8 mg BID,"260,305 pg · h/ml"
same,AUC0-24 hours Max,[2]; 8 mg BID,"1,140,247 pg · h/ml"
